pIC50: −log10 of the molar value.
biological target: EGFR (Homo sapiens, UniProt P00533); test: Biochemical EGFR assay (ELISA, A431 cell lysate); parameters: A431 cell lysate (Screening Lab, SUGEN, Inc.); host or cells: A431; conditions: read-out: bio EGFr IC50
Procedure, shortened: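 EGFR captured from A431 cell lysate onto anti-EGFR-coated plates, then incubated with test compound for 30 min at room temperature. Tyrosine phosphorylation with ATP/MnCl2 was stopped with EDTA after 5 min and detected by anti-phosphotyrosine ELISA with peroxidase/ABTS read-out.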

EGFR, sequence (P00533 25-1210): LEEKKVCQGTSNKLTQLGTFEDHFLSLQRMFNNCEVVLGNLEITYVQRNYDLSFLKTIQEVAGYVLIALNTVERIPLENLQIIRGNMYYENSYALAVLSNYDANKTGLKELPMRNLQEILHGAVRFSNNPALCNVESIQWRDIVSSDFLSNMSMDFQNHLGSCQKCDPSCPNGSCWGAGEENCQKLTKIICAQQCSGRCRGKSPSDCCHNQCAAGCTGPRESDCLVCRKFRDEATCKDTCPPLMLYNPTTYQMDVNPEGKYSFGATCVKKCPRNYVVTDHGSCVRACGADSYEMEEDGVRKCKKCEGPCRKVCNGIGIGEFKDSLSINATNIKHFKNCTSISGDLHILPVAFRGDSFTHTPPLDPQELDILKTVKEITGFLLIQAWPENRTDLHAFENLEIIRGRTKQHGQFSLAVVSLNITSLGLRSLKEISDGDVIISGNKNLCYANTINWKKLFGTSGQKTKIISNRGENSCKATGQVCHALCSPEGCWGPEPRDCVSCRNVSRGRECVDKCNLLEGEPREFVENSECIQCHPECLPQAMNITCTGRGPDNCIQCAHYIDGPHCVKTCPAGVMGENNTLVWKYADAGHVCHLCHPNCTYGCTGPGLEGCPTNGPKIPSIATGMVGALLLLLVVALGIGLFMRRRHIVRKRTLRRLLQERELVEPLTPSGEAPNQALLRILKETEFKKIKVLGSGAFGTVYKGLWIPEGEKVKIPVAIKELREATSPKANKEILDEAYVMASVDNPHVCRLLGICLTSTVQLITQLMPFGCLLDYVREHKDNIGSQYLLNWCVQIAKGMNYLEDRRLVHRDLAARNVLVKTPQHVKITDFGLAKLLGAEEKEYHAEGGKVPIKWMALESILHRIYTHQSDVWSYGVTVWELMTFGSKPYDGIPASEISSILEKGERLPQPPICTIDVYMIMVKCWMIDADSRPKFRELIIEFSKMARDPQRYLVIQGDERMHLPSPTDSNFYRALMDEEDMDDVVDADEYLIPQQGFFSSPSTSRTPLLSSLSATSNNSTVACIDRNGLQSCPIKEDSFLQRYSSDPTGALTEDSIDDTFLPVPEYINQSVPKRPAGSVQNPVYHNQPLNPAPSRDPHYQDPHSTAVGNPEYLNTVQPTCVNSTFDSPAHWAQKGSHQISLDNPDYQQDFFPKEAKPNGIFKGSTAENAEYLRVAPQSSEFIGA

**Q.** CCOC(=O)c1c(C)[nH]c(/C=C2\C(=O)Nc3ccc(Br)cc32)c1CCC(=O)O [Compound 114, 5-(5-Bromo-2-oxo-1,2-dihydroindol-3-ylidenemethyl)-4-(2-carboxyethyl)-2-methyl-1H-pyrrole-3-carboxylic acid ethyl ester] was tested. Which pIC50 did it give?
**A.** < 4.00

**Q.** With Cc1cc(CCC(=O)O)c(/C=C2\C(=O)Nc3ccc(Br)cc32)[nH]1 [Compound 116, 3-[2-(5-Bromo-2-oxo-1,2-dihydroindol-3-ylidenemethyl)-5-methyl-1H-pyrrol-3-yl]-propionic acid] as the compound, how does the pIC50 read?
**A.** < 4.00

**Q.** With COc1c(C(C)C)cc(/C=C2/C(=O)Nc3ccccc32)cc1C(C)C [Example 1, 3-(3,5-Diisopropyl-4-methoxybenzylidene)-1,3-dihydroindol-2-one] as the compound, how does the pIC50 read?
**A.** < 4.00

**Q.** How did the pIC50 turn out when COc1c(C(C)C)cc(/C=C2/C(=O)Nc3ccc(Cl)cc32)cc1C(C)C [Example 2, 5-Chloro-3-(3,5-diisopropyl-4-methoxybenzylidene)-1,3-dihydroindol-2-one] was run?
**A.** < 4.00

**Q.** With O=C1Nc2ccc(N=Cc3cc4ccccc4[nH]3)cc2C1=Cc1cc2ccccc2[nH]1 [Example 171, 3-(1H-indol-2-ylmethylene)-5-[(1H-indol-2-ylmethylene)-amino]-1,3-dihydroindol-2-one] as the compound, how does the pIC50 read?
**A.** < 4.00

**Q.** With NS(=O)(=O)c1ccc2c(c1)/C(=C/c1c[nH]c3ccccc13)C(=O)N2 [Example 172, 3-(1H-Indol-3-ylmethylene)-2-oxo-2,3-dihydro-1H-indole-5-sulfonic acid amide] as the compound, how does the pIC50 read?
**A.** < 4.00

**Q.** CNS(=O)(=O)c1ccc2c(c1)/C(=C/c1cc3ccccc3[nH]1)C(=O)N2 [Example 173, 3-(1H-Indol-2-ylmethylene)-2-oxo-2,3-dihydro-1H-indole-5-sulfonic acid methylamide] was tested. Which pIC50 did it give?
**A.** 4.66

**Q.** O=C1Nc2ccc(C(=O)O)cc2/C1=C/c1c[nH]c2ccccc12 [Example 174, 3-(1H-Indol-3-ylmethylene)-2-oxo-2,3-dihydro-1H-indole-5-carboxylic acid] was tested. Which pIC50 did it give?
**A.** < 4.00

**Q.** With O=C1Nc2ccc(C(=O)O)cc2/C1=C/c1ccc2[nH]ccc2c1 [Example 177, 3-(1H-Indol-5-ylmethylene)-2-oxo-2,3-dihydro-1H-indole-5-carboxylic acid] as the compound, how does the pIC50 read?
**A.** 5.21

**Q.** With Nc1ccc2c(c1)/C(=C/c1ccc3[nH]ccc3c1)C(=O)N2 [Example 179, 5-Amino-3-(1H-indol-5-ylmethylene)-1,3-dihydro-indol-2-one] as the compound, how does the pIC50 read?
**A.** < 4.00

**Q.** How did the pIC50 turn out when Cc1c(/C=C2\C(=O)Nc3ccc(N)cc32)[nH]c2ccccc12 [Example 180, 5-Amino-3-(3-methyl-1H-indol-2-ylmethylene)-1,3-dihydroindol-2-one] was run?
**A.** < 4.00

**Q.** With Cc1[nH]c2ccccc2c1/C=C1\C(=O)Nc2ccc(C(=O)O)cc21 [Example 182, 3-(2-Methyl-1H-indol-3-ylmethylene)-2-oxo-2,3-dihydro-1H-indole-5-carboxylic acid] as the compound, how does the pIC50 read?
**A.** < 4.00

**Q.** How did the pIC50 turn out when Cc1[nH]c2ccccc2c1/C=C1\C(=O)Nc2ccc(N)cc21 [Example 187, 5-Amino-3-(2-methyl-1H-indol-3-ylmethylene)-1,3-dihydroindol-2-one] was run?
**A.** < 4.00

**Q.** How did the pIC50 turn out when O=C(O)CCc1c(/C=C2\C(=O)Nc3ccc(Cl)cc32)[nH]c2c1CCCC2 [Example 191, 3-[2-(5-Chloro-2-oxo-1,2-dihydroindol-3-ylidenemethyl)-4,5,6,7-tetrahydro-1H-indol-3-yl]-propionic acid] was run?
**A.** < 4.00

**Q.** With Cc1cccc2c1/C(=C/c1[nH]c3c(c1CCC(=O)O)CCCC3)C(=O)N2 [Example 193, 3-[2-(4-Methyl-2-oxo-1,2-dihydroindol-3-ylidenemethyl)-4,5,6,7-tetrahydro-1H-indol-3-yl]-propionic acid] as the compound, how does the pIC50 read?
**A.** 4.04

**Q.** How did the pIC50 turn out when O=C(O)CCc1c(/C=C2\C(=O)Nc3cc(Cl)ccc32)[nH]c2c1CCCC2 [Example 195, 3-[2-(6-Chloro-2-oxo-1,2-dihydroindol-3-ylidenemethyl)-4,5,6,7-tetrahydro-1H-indol-3-yl]-propionic acid] was run?
**A.** 4.44

**Q.** CN(C)C(=O)CCc1c(/C=C2\C(=O)Nc3ccccc32)[nH]c2c1CCCC2 [Example 197, N,N-Dimethyl-3-[2-(2-oxo-1,2-dihydroindol-3-ylidenemethyl)-4,5,6,7-tetrahydro-1H-indol-3-yl]-propionamide] was tested. Which pIC50 did it give?
**A.** < 4.00

**Q.** CN(C)CCCc1c(/C=C2\C(=O)Nc3ccccc32)[nH]c2c1CCCC2 [Example 198, 3-[3-(3-Dimethylaminopropyl)-4,5,6,7-tetrahydro-1H-indol-2-ylmethylene]-1,3-dihydroindol-2-one] was tested. Which pIC50 did it give?
**A.** < 4.00

**Q.** NC(=O)CCc1c(/C=C2\C(=O)Nc3ccccc32)[nH]c2c1CCCC2 [Example 199, 3-[2-(2-Oxo-1,2-dihydroindol-3-ylidenemethyl)-4,5,6,7-tetrahydro-1H-indol-3-yl]-propionamide] was tested. Which pIC50 did it give?
**A.** < 4.00

**Q.** O=C1Nc2ccccc2/C1=C/c1[nH]c2c(c1CCC(=O)N1CCOCC1)CCCC2 [Example 200, 3-[3-(3-Morpholin-4-yl-3-oxopropyl)-4,5,6,7-tetrahydro-1H-indol-2-ylmethylene]-1,3-dihydroindol-2-one] was tested. Which pIC50 did it give?
**A.** < 4.00

**Q.** With CNC(=O)CCc1c(/C=C2\C(=O)Nc3ccccc32)[nH]c2c1CCCC2 [Example 201, N-Methyl-3-[2-(2-oxo-1,2-dihydroindol-3-ylidenemethyl)-4,5,6,7-tetrahydro-1H-indol-3-yl]-propionamide] as the compound, how does the pIC50 read?
**A.** < 4.00

**Q.** O=C(CCc1c(/C=C2\C(=O)Nc3ccccc32)[nH]c2c1CCCC2)NCCN1CCOCC1 [Example 202, N-(2-Morpholin-4-ylethyl)-3-[2-(2-oxo-1,2-dihydroindol-3-ylidenemethyl)-4,5,6,7-tetrahydro-1H-indol-3-yl]-propionamide] was tested. Which pIC50 did it give?
**A.** < 4.00

**Q.** How did the pIC50 turn out when O=C(O)CCc1c(/C=C2\C(=O)Nc3ncccc32)[nH]c2c1CCCC2 [Example 203, 3-[2-(2-Oxo-1,2-dihydropyrrolo[2,3-b]pyridin-3-ylidenemethyl)-4,5,6,7-tetrahydro-1H-indol-3-yl]-propionic acid] was run?
**A.** < 4.90

**Q.** How did the pIC50 turn out when COc1cccc(-c2ccc3c(c2)NC(=O)/C3=C\c2[nH]c3c(c2CCC(=O)O)CCCC3)c1 [Example 204, 3-{2-[6-(3-Methoxyphenyl)-2-oxo-1,2-dihydro-indol-3-ylidenemethyl]-4,5,6,7-tetrahydro-1H-indol-3-yl}-propionic acid] was run?
**A.** 5.15

**Q.** With COc1ccc(-c2ccc3c(c2)NC(=O)/C3=C\c2[nH]c3c(c2CCC(=O)O)CCCC3)cc1 [Example 205, 3-{2-[6-(4-Methoxyphenyl)-2-oxo-1,2-dihydro-indol-3-ylidenemethyl]-4,5,6,7-tetrahydro-1H-indol-3-yl}-propionic acid] as the compound, how does the pIC50 read?
**A.** 4.79

**Q.** How did the pIC50 turn out when CC(C)NS(=O)(=O)c1ccc2c(c1)C(=Cc1[nH]c3c(c1CCC(=O)O)CCCC3)C(=O)N2 [Example 208, 3-[2-(5-Isopropylaminosulfonyl-2-oxo-1,2-dihydroindol-3-ylidenemethyl)-4,5,6,7-tetrahydro-1H-indol-3-yl]-propionic acid] was run?
**A.** < 4.00

**Q.** How did the pIC50 turn out when O=C(O)CCc1ccccc1/C=C1/C(=O)Nc2ccccc21 [Example 214, 3-[2-(2-Oxo-1,2-dihydroindol-3-ylidenemethyl)-phenyl]-propionic acid] was run?
**A.** < 4.00

**Q.** With Cc1c[nH]c(/C=C2\C(=O)Nc3ccccc32)c1CCC(=O)O [Example 215, 3-[4-Methyl-2-(2-oxo-1,2-dihydroindol-3-ylidenemethyl)-1H-pyrrol-3-yl]-propionic acid] as the compound, how does the pIC50 read?
**A.** < 4.00

**Q.** Cc1c[nH]c(/C=C2\C(=O)Nc3ccc(Cl)cc32)c1CCC(=O)O [Example 216, 3-[2-(5-Chloro-2-oxo-1,2-dihydroindol-3-ylidenemethyl)-4-methyl-1H-pyrrol-3-yl]-propionic acid] was tested. Which pIC50 did it give?
**A.** < 4.00

**Q.** With COc1ccc2c(c1)NC(=O)/C2=C\c1[nH]cc(C)c1CCC(=O)O [Example 217, 3-[2-(6-Methoxy-2-oxo-1,2-dihydroindol-3-ylidenemethyl)-4-methyl-1H-pyrrol-3-yl]-propionic acid] as the compound, how does the pIC50 read?
**A.** < 4.00

**Q.** Cc1c[nH]c(C=C2C(=O)Nc3cc(Cl)ccc32)c1CCC(=O)O [Example 219, 3-[2-(6-Chloro-2-oxo-1,2-dihydroindol-3-ylidenemethyl)-4-methyl-1H-pyrrol-3-yl]-propionic acid] was tested. Which pIC50 did it give?
**A.** 4.01

**Q.** How did the pIC50 turn out when COc1ccc2c(c1)/C(=C/c1[nH]cc(C)c1CCC(=O)O)C(=O)N2 [Example 222, 3-[2-(5-Methoxy-2-oxo-1,2-dihydroindol-3-ylidenemethyl)-4-methyl-1H-pyrrol-3-yl]-propionic acid] was run?
**A.** < 4.00

**Q.** How did the pIC50 turn out when COc1cccc(-c2ccc3c(c2)NC(=O)/C3=C\c2[nH]cc(C)c2CCC(=O)O)c1 [Example 223, 3-{2-[6-(3-Methoxyphenyl)-2-oxo-1,2-dihydro-indol-3-ylidenemethyl]-4-methyl-1H-pyrrol-3-yl}-propionic acid] was run?
**A.** 4.88

Source: patent US6855730B2, “3-methylidenyl-2-indolinone modulators of protein kinase” (Sugen, Inc., priority 1998, dated 2005)
